The values that follow come from US9808504B2, “Immunogenic epitopes as targets for universal cancer vaccines” (Yale University, priority 2009, dated 2017).

This experiment deals with freshly isolated human PBMCs. Kind of experiment: Detection of OCT4 reactive T cells in fresh PBMCs: IP10 in culture supernatant by Luminex. Type of experiment: cell-based. To be noted: PBMCs of 10 healthy donors cultured with individual peptides, 48 h.
As for AETLVQARKRKRTSI [compound 61], the “reactivity to individual peptides (fine specificity)” value (from here on “reactivity to individual peptides”) was “hot-spots of promiscuous reactivity”. In the case of AQQLGLEKDVVRVWF [compound 72], the “reactivity to individual peptides” value was “hot-spots of promiscuous reactivity”. For the sequence CKLRPLLQKWVEEA [compound 55], the “reactivity to individual peptides” value is recorded as “hot-spots of promiscuous reactivity”. As to DVVRVWFCNRRQKGK [compound 74], the “reactivity to individual peptides” value is given as “hot-spots of promiscuous reactivity”.

In the case of EICKAETLVQARKRK [compound 60], the “reactivity to individual peptides” value is “hot-spots of promiscuous reactivity”. The value for GLEKDVVRVWFCNRR [compound 73] was “hot-spots of promiscuous reactivity”. On to KRKRTSIENRVRGNL [compound 63], for which the “reactivity to individual peptides” value is on record as “hot-spots of promiscuous reactivity”. As to LQQISHIAQQLGLEK [compound 70], the “reactivity to individual peptides” value was “hot-spots of promiscuous reactivity”. Consider LSFKNMCKLRPLLQK [compound 53], for which the “reactivity to individual peptides” value is reported as “hot-spots of promiscuous reactivity”. For NLFLQCPKPTLQQIS [compound 67], the “reactivity to individual peptides” value is recorded as “hot-spots of promiscuous reactivity”. For NMCKLRPLLQKWV [compound 54] the value was “hot-spots of promiscuous reactivity”; for NRRQKGKRSSSDYA [compound 76], “hot-spots of promiscuous reactivity”. As to NRVRGNLENLFLQCP [compound 65], the “reactivity to individual peptides” value was “hot-spots of promiscuous reactivity”.

As for RQKGKRSSSDYAQR [compound 77], the “reactivity to individual peptides” value is on record as “hot-spots of promiscuous reactivity”. For the sequence SHIAQQLGLEKDVVR [compound 71], the “reactivity to individual peptides” value is “hot-spots of promiscuous reactivity”. With VQARKRKRTSIENRV [compound 62], the “reactivity to individual peptides” value is “hot-spots of promiscuous reactivity”. The value for VWFCNRRQKGKRSSS [compound 75] was “hot-spots of promiscuous reactivity”.
